Measurements: article PMC11822212, “High-throughput screening identifies Aurora kinase B as a critical therapeutic target for Merkel cell carcinoma” (Nature Communications, 2025)
Values joined by “and” are separate entries in the source; they are usually repeats but may differ in a detail not shown here. Equal entries are not always repeated. Structures can show the parent of a compound that is named as a salt. Where two headings read alike, the source gives them in different places.

Columns and labels:
[1] = test system: UISO cells (VN-MCC); test: qHTS cell viability (CellTiter-Glo, 72 h; primary and follow-up small molecule screen); format: cell-based, human; conditions: for Area under the dose-response curve (AUC) UISO Replicate 1 / Area under the dose-response curve (AUC) UISO Replicate 2 / Area under the dose-response curve (AUC) UISO Replicate 3: follow-up screen
[2] = test system: VP-MCC cell lines (WAGA, MKL-1, MKL-2); test: qHTS cell viability, VP-MCC cell lines as a group (mean AUC, VP.MCC.avg); format: cell-based, human
[3] = test system: HACAT cells; test: qHTS cell viability (CellTiter-Glo, 72 h; primary screen), control cell line; format: cell-based, human
[4] = test system: VN-MCC cell lines (MCC13, MCC26, UISO); test: qHTS cell viability, VN-MCC cell lines as a group (mean AUC, VN.MCC.avg); format: cell-based, human
[5] = test system: MKL-2 cells (VP-MCC); test: qHTS cell viability (CellTiter-Glo, 72 h; primary and follow-up small molecule screen); format: cell-based, human; conditions: for Area under the dose-response curve (AUC) MKL-2 Replicate 1 / Area under the dose-response curve (AUC) MKL-2 Replicate 2 / Area under the dose-response curve (AUC) MKL-2 Replicate 3: follow-up screen
[6] = test system: six MCC cell lines and four control cell lines; test: qHTS cell viability, all 10 cell lines screened; format: cell-based
[7] = test system: WAGA cells (VP-MCC); test: qHTS cell viability (CellTiter-Glo, 72 h; primary and follow-up small molecule screen); format: cell-based, human; conditions: for Area under the dose-response curve (AUC) WAGA Replicate 1 / Area under the dose-response curve (AUC) WAGA Replicate 2 / Area under the dose-response curve (AUC) WAGA Replicate 3: follow-up screen
[8] = test system: HEK293T cells; test: qHTS cell viability (CellTiter-Glo, 72 h; primary screen), control cell line; format: cell-based, human
[9] = test system: NIH-3T3 cells; test: as above; format: cell-based, mouse
[10] = test system: MCC cell lines (WAGA, MKL-1, MKL-2, MCC13, MCC26, UISO); test: qHTS cell viability, all six MCC cell lines as a group (mean AUC, MCC.avg); format: cell-based, human
[11] = test system: CRL-7250 cells; test: qHTS cell viability (CellTiter-Glo, 72 h; primary screen), control cell line; format: cell-based
[12] = test system: MKL-1 cells (VP-MCC); test: qHTS cell viability (CellTiter-Glo, 72 h; primary and follow-up small molecule screen); format: cell-based, human; conditions: for Area under the dose-response curve (AUC) MKL-1 Replicate 1 / Area under the dose-response curve (AUC) MKL-1 Replicate 2 / Area under the dose-response curve (AUC) MKL-1 Replicate 3: follow-up screen
[13] = test system: MCC13 cells (VN-MCC); test: as above; format: cell-based, human; conditions: for Area under the dose-response curve (AUC) MCC13 Replicate 1 / Area under the dose-response curve (AUC) MCC13 Replicate 2 / Area under the dose-response curve (AUC) MCC13 Replicate 3: follow-up screen
[14] = test system: control cell lines (HACAT, HEK293T, CRL-7250, NIH-3T3); test: qHTS cell viability, control cell lines as a group (mean AUC, Control.avg); format: cell-based
[15] = test system: MCC26 cells (VN-MCC); test: qHTS cell viability (CellTiter-Glo, 72 h; primary and follow-up small molecule screen); format: cell-based, human; conditions: for Area under the dose-response curve (AUC) MCC26 Replicate 1 / Area under the dose-response curve (AUC) MCC26 Replicate 2 / Area under the dose-response curve (AUC) MCC26 Replicate 3: follow-up screen
[16] = NPC library, qHTS dose-response AUC, UISO
[17] = NPC library, mean AUC of VP-MCC cell lines
[18] = NPC library, therapeutic window: Control avg AUC minus VP-MCC avg AUC
[19] = NPC library, qHTS dose-response AUC, HACAT control
[20] = NPC library, mean AUC of VN-MCC cell lines
[21] = NPC library, therapeutic window: Control avg AUC minus VN-MCC avg AUC
[22] = NPC library, qHTS dose-response AUC, MKL2
[23] = NPC library, therapeutic window: Control avg AUC minus MCC avg AUC
[24] = NPC library, qHTS dose-response AUC, WAGA
[25] = NPC library, qHTS dose-response AUC, HEK293T control
[26] = NPC library, qHTS dose-response AUC, NIH3T3 control
[27] = NPC library, mean AUC of six MCC cell lines
[28] = NPC library, qHTS dose-response AUC, CRL7250 control
[29] = NPC library, qHTS dose-response AUC, MKL1
[30] = NPC library, qHTS dose-response AUC, MCC13
[31] = NPC library, mean AUC of control cell lines
[32] = NPC library, qHTS dose-response AUC, MCC26
[33] = MIPE library, 11-point DRC, sheet S2E
[34] = MIPE library, 11-point DRC, control cell line, sheet S2E

## CCCCCCC[N+](CC)(CC)CCCCc1ccc(Cl)cc1.Cc1ccc(S(=O)(=O)[O-])cc1 [Clofilium tosylate]
[1]; [16]
  UISO_AUC: 375.709
[1]; UISO
  Area under the dose-response curve (AUC) UISO Replicate 1: 319.6
  Area under the dose-response curve (AUC) UISO Replicate 2: 366.0
  Area under the dose-response curve (AUC) UISO Replicate 3: 321.7
[2]; [17]
  VP-MCC_Avg_AUC: 309.028
[2]; [18]
  Control-VP-MCC: 109.618
[3]; [19]
  HACAT_AUC: 444.696
[4]; [20]
  VN-MCC_Avg_AUC: 443.413
[4]; [21]
  Control-VN-MCC: -24.7666
[5]; [22]
  MKL2_AUC: 283.262
[5]
  Area under the dose-response curve (AUC) MKL-2 Replicate 1: 313.7
  Area under the dose-response curve (AUC) MKL-2 Replicate 2: 309.2
  Area under the dose-response curve (AUC) MKL-2 Replicate 3: 301.8
[6]; [23]
  Control-MCC: 42.4257
[7]; [24]
  WAGA_AUC: 331.884
[7]; WAGA
  Area under the dose-response curve (AUC) WAGA Replicate 1: 348.8
  Area under the dose-response curve (AUC) WAGA Replicate 2: 411.4
  Area under the dose-response curve (AUC) WAGA Replicate 3: 326.5
[8]; [25]
  HEK293T_AUC: 375.013
[9]; [26]
  NIH3T3_AUC: 452.7
[10]; [27]
  MCC_Avg_AUC: 376.221
[11]; [28]
  CRL7250_AUC: 402.177
[12]; [29]
  MKL1_AUC: 311.939
[12]
  Area under the dose-response curve (AUC) MKL-1 Replicate 1: 329.2
  Area under the dose-response curve (AUC) MKL-1 Replicate 2: 327.6
  Area under the dose-response curve (AUC) MKL-1 Replicate 3: 322.0
[13]; [30]
  MCC13_AUC: 487.681
[13]; MCC13
  Area under the dose-response curve (AUC) MCC13 Replicate 1: 426.2
  Area under the dose-response curve (AUC) MCC13 Replicate 2: 460.3
  Area under the dose-response curve (AUC) MCC13 Replicate 3: 452.0
[14]; [31]
  Control_Avg_AUC: 418.646
[15]; [32]
  MCC26_AUC: 466.849
[15]; MCC26
  Area under the dose-response curve (AUC) MCC26 Replicate 1: 410.9
  Area under the dose-response curve (AUC) MCC26 Replicate 2: 395.3
  Area under the dose-response curve (AUC) MCC26 Replicate 3: 393.8

## COc1ccc2c3c1O[C@H]1[C@@H](O)C=C[C@H]4[C@@H](C2)N(C)CC[C@@]341 [Codeine hydrochloride]
[1]
  UISO_AUC: 365.394
[2]
  Control-VP-MCC: 113.387
  VP-MCC_Avg_AUC: 346.415
[3]
  HACAT_AUC: 474.439
[4]
  Control-VN-MCC: 68.4482
  VN-MCC_Avg_AUC: 391.354
[5]
  MKL2_AUC: 316.851
[6]
  Control-MCC: 90.9174
[7]
  WAGA_AUC: 360.01
[8]
  HEK293T_AUC: 441.34
[9]
  NIH3T3_AUC: 465.288 and 465.287
[10]
  MCC_Avg_AUC: 368.884
[11]
  CRL7250_AUC: 458.141
[12]
  MKL1_AUC: 362.385
[13]
  MCC13_AUC: 404.155
[14]
  Control_Avg_AUC: 459.802
[15]
  MCC26_AUC: 404.512

## CC(C)(O)/C=C/C(=O)[C@](C)(O)[C@H]1[C@H](O)C[C@@]2(C)[C@@H]3CC=C4[C@@H](C=C(O)C(=O)C4(C)C)[C@]3(C)C(=O)C[C@]12C [Cucurbitacin I]
[1]
  UISO_AUC: 252.668
[2]
  Control-VP-MCC: 109.051
  VP-MCC_Avg_AUC: 205.024
[3]
  HACAT_AUC: 326.184
[4]
  Control-VN-MCC: 16.3626
  VN-MCC_Avg_AUC: 297.712
[5]
  MKL2_AUC: 186.366
[6]
  Control-MCC: 62.7066
[7]
  WAGA_AUC: 216.289
[8]
  HEK293T_AUC: 307.458
[9]
  NIH3T3_AUC: 387.943
[10]
  MCC_Avg_AUC: 251.368
[11]
  CRL7250_AUC: 234.715
[12]
  MKL1_AUC: 212.417
[13]
  MCC13_AUC: 297.405
[14]
  Control_Avg_AUC: 314.075
[15]
  MCC26_AUC: 343.064

## COc1cc(/C=C/C(=O)CC(=O)/C=C/c2ccc(O)c(OC)c2)ccc1O [Curcumin]
[1]; [33]
  UISO_AUC: 416.827
[2]; MIPE library, Control AUC minus VP-MCC AUC (therapeutic window), sheet S2E
  Control-VP-MCC: 62.3178
[2]; MIPE library, mean AUC of VP-MCC cell lines, sheet S2E
  VP-MCC_Avg_AUC: 372.565
[3]; [34]
  HACAT_AUC: 459.473
[4]; MIPE library, Control AUC minus VN-MCC AUC (therapeutic window), sheet S2E
  Control-VN-MCC: -6.83
[4]; MIPE library, mean AUC of VN-MCC cell lines, sheet S2E
  VN-MCC_Avg_AUC: 441.713
[5]; [33]
  MKL2_AUC: 342.595
[6]; MIPE library, Control AUC minus MCC AUC (therapeutic window), sheet S2E
  Control-MCC: 27.7437
[7]; [33]
  WAGA_AUC: 392.592
[8]; [34]
  HEK293T_AUC: 422.758
[9]; [34]
  NIH3T3_AUC: 423.932
[10]; MIPE library, mean AUC of six MCC cell lines, sheet S2E
  MCC_Avg_AUC: 407.139
[11]; [34]
  CRL7250_AUC: 433.368
[12]; [33]
  MKL1_AUC: 382.508
[13]; [33]
  MCC13_AUC: 449.9
[14]; MIPE library, mean AUC of control cell lines, sheet S2E
  Control_Avg_AUC: 434.883
[15]; [33]
  MCC26_AUC: 458.412

## COc1cc(/C=C2\CCC/C(=C\c3ccc(O)c(OC)c3)C2=O)ccc1O [Cyclovalone]
[1]; [16]
  UISO_AUC: 420.96
[1]; UISO
  Area under the dose-response curve (AUC) UISO Replicate 1: 445.7
  Area under the dose-response curve (AUC) UISO Replicate 2: 433.0
  Area under the dose-response curve (AUC) UISO Replicate 3: 430.4
[2]; [17]
  VP-MCC_Avg_AUC: 381.488
[2]; [18]
  Control-VP-MCC: 60.1479
[3]; [19]
  HACAT_AUC: 441.291
[4]; [20]
  VN-MCC_Avg_AUC: 437.803
[4]; [21]
  Control-VN-MCC: 3.833
[5]; [22]
  MKL2_AUC: 366.589
[5]
  Area under the dose-response curve (AUC) MKL-2 Replicate 1: 366.1
  Area under the dose-response curve (AUC) MKL-2 Replicate 2: 391.5
  Area under the dose-response curve (AUC) MKL-2 Replicate 3: 417.0
[6]; [23]
  Control-MCC: 31.9905
[7]; [24]
  WAGA_AUC: 394.525
[7]; WAGA
  Area under the dose-response curve (AUC) WAGA Replicate 1: 469.4
  Area under the dose-response curve (AUC) WAGA Replicate 2: 402.6
  Area under the dose-response curve (AUC) WAGA Replicate 3: 413.8
[8]; [25]
  HEK293T_AUC: 422.832
[9]; [26]
  NIH3T3_AUC: 447.034
[10]; [27]
  MCC_Avg_AUC: 409.645
[11]; [28]
  CRL7250_AUC: 455.387
[12]; [29]
  MKL1_AUC: 383.35
[12]
  Area under the dose-response curve (AUC) MKL-1 Replicate 1: 414.7
  Area under the dose-response curve (AUC) MKL-1 Replicate 2: 411.0
  Area under the dose-response curve (AUC) MKL-1 Replicate 3: 407.6
[13]; [30]
  MCC13_AUC: 435.637
[13]; MCC13
  Area under the dose-response curve (AUC) MCC13 Replicate 1: 472.8
  Area under the dose-response curve (AUC) MCC13 Replicate 2: 478.9
  Area under the dose-response curve (AUC) MCC13 Replicate 3: 414.2
[14]; [31]
  Control_Avg_AUC: 441.636
[15]; [32]
  MCC26_AUC: 456.812
[15]; MCC26
  Area under the dose-response curve (AUC) MCC26 Replicate 1: 446.8
  Area under the dose-response curve (AUC) MCC26 Replicate 2: 450.2
  Area under the dose-response curve (AUC) MCC26 Replicate 3: 451.9
